What all share (assay type): cell-based
Assay [1] deals with T1, KAT2A (Homo sapiens, UniProt Q92830). Description: KAT2A degradation, Western Blot (Jess), MOLM-13 cells. The note with it: MOLM-13 cells, KAT2A, 24 h, Western Blot, vs DMSO; read-out: KAT2A MOLM-13 DC50. Further details: degrader, Western blot. On the procedure: MOLM-13 cells or NCI-H1048 cells were used for Western Blot analysis of KAT2A degradation. KAT2B degradation can be measured in a similar manner with NCI-H1048 cells.
MOLM-13 cells were maintained at 37° C. in 5% CO2 and 90% humidity in RPMI 1640 supplemented with 20% fetal bovine serum (FBS) and 1× penicillin/streptomycin. Cells were plated in full media at 1-2 million cells/2 mL in a 6-well tissue culture treated plate with or without compounds for 24 h at 37° C. in 5% CO2.
MOLM-13 cells or NCI-H1048 cells were washed with PBS, then lysed with RIPA buffer containing 1×protease and phosphatase inhibitors (SantaCruz Biotechnologies Cat #sc-24948A). Protein was isolated by centrifugation at 12,000×g for 10 minutes at 4° C. and supernatant was collected. Protein was quantified via Bradford assay. Samples were diluted to 4 μg lysate in 16 μL RIPA buffer and then 4 μL of Jess Sample Buffer. Samples were heated at 95° C. for 5 minutes. Samples were loaded onto 12-230 kDa Jess™ Separation Module, 8×25 capillary cartridges (SM-W004, Biotechne). Antibodies loaded were: Primary antibody for KAT2A (GCN5L2 (C26A10) Rabbit mAb (3305, CST)) and for KAT2B (PCAF (C14G9)) Rabbit mAb (3378, CST) at 1:1000 and Anti-Rabbit Detection Module for Jess™ (Cat No #DM-001, Biotechne). Signal was detected by chemiluminescence.
DC50 values were determined from percent reduction of protein as compared to the DMSO control.
For orientation: Immunoblotting shows a protein as a band on a membrane.

Assay [2] deals with T1, KAT2A. In words: KAT2A degradation, Western Blot (Jess), NCI-H1048 cells. Further details: degrader, Western blot (Jess). The note with it: NCI-H1048 cells, KAT2A, 24 h, Western Blot, vs DMSO; read-out: KAT2A NCI-H1048 DC50. Put shortly: (§1)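 DC50 came from protein loss relative to DMSO, measured by Jess capillary immunoblot of RIPA lysates with chemiluminescence read-out. Before lysis, NCI-H1048 cells in 5% FBS HITES medium were exposed to compound for 24 h at 37° C.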

Another assay concerns the target KAT2B (Homo sapiens, UniProt Q92831). In words: KAT2B degradation, Western Blot (Jess), NCI-H1048 cells. Further details: degrader, Western blot (Jess). The note with it: NCI-H1048 cells, KAT2B, 24 h, Western Blot, vs DMSO; read-out: KAT2B NCI-H1048 DC50. The method in brief: as §1

What is called DC50 is the concentration giving 50% degradation.

Structures are written as SMILES.

Chain of KAT2B (Q92831 whole entry): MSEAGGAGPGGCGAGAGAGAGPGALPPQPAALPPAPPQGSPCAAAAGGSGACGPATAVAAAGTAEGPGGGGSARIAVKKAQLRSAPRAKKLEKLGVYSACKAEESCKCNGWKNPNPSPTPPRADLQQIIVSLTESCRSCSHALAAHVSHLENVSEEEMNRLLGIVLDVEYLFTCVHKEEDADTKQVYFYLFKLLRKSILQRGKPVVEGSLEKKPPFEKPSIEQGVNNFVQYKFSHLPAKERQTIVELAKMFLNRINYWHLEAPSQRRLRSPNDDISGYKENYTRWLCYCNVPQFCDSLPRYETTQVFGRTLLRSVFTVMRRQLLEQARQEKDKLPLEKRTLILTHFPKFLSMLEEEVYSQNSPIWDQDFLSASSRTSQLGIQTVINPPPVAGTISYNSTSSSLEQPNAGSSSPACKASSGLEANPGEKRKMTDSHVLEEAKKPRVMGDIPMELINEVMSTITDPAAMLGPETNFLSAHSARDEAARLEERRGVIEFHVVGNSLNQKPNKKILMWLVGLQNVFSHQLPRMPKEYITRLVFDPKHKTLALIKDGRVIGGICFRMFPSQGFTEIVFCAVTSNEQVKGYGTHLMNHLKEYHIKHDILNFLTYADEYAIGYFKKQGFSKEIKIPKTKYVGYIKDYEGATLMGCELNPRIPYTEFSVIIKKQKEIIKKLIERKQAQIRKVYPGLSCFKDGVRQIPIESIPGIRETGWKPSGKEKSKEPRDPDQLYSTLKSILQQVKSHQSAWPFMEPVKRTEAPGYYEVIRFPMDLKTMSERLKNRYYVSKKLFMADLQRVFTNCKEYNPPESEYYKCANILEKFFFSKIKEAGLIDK
T1 sequence (Q92830 whole entry): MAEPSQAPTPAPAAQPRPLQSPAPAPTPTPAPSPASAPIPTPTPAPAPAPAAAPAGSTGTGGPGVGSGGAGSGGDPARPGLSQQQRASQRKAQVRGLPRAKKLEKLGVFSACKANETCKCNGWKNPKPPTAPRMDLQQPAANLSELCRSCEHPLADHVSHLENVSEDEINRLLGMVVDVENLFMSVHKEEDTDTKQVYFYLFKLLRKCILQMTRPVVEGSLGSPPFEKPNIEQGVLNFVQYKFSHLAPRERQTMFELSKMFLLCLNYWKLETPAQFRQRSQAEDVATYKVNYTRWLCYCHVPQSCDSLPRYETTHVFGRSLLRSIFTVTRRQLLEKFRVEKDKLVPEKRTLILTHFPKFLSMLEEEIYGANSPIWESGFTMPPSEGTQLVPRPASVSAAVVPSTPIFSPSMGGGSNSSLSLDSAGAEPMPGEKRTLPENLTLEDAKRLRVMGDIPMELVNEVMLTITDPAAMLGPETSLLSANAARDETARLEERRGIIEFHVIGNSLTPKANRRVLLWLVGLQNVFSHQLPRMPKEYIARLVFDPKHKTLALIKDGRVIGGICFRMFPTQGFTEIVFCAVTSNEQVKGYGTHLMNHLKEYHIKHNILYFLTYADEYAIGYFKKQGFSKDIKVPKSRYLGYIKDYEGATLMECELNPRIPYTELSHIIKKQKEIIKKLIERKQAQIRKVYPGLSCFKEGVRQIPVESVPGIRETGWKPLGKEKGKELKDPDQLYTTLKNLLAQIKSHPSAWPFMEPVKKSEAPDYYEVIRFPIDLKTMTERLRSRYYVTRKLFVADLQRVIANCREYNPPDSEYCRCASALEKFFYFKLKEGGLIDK

Consider `CN1C[C@H](Nc2cnn(C)c(=O)c2Br)C[C@H](c2ccc(C(=O)N(C)c3ccc(Oc4cccc5c4C(=O)N(C4CCC(=O)NC4=O)C5=O)cc3)cc2)C1` (stereo partly drawn) [Compound 1], for which the DC50 on KAT2A [1] was in the range of 1 to 30 nM. On the same count and under the same terms, the result for `CN1C[C@H](Nc2cnn(C)c(=O)c2Br)C[C@H](c2ccc(C(=O)N(C)c3ccc(CCCOc4cccc5c4C(=O)N(C4CCC(=O)NC4=O)C5=O)cc3)cc2)C1` (stereo partly drawn) [Compound 2] reads 1 to 30 nM; that for `CN1C[C@H](Nc2cnn(C)c(=O)c2Br)C[C@H](c2ccc(C(=O)NCCCCCCCCCC(=O)Nc3ccc4c(c3)CN(C3CCC(=O)NC3=O)C4=O)cc2)C1` (stereo partly drawn) [Compound 3], under 1 nM; that for `CN1C[C@H](Nc2cnn(C)c(=O)c2Br)C[C@H](c2ccc(C(=O)NCCOCC(=O)Nc3ccc4c(c3)CN(C3CCC(=O)NC3=O)C4=O)cc2)C1` (stereo partly drawn) [Compound 4], over 30 nM.

For `CN1C[C@H](Nc2cnn(C)c(=O)c2Br)C[C@H](c2ccc(C(=O)N3CCC(C#CC(=O)Nc4ccc5c(c4)CN(C4CCC(=O)NC4=O)C5=O)CC3)cc2)C1` (stereo partly drawn) [Compound 5], the DC50 on KAT2A [1] was in the range of 1 to 30 nM. On to `CN1C[C@H](Nc2cnn(C)c(=O)c2Br)C[C@H](c2ccc(C(=O)N3CCN(Cc4ccc(C(=O)Nc5cccc6c5C(=O)N(C5CCC(=O)NC5=O)C6=O)cc4)CC3)cc2)C1` (stereo partly drawn) [Compound 6], for which, on KAT2A [1], the DC50 was under 1 nM. As for `CN1C[C@H](Nc2cnn(C)c(=O)c2Br)C[C@H](c2ccc(C(=O)N3CCN(CCOCCC(=O)Nc4cccc5c4C(=O)N(C4CCC(=O)NC4=O)C5=O)CC3)cc2)C1` (stereo partly drawn) [Compound 7], at KAT2A [1], the DC50 lay within 1 to 30 nM. The same measure, in the same setting: the result for `CN1C[C@H](Nc2cnn(C)c(=O)c2Br)C[C@H](c2ccc(C(=O)N(C)CCCCC#CCCCOc3cccc4c3C(=O)N(C3CCC(=O)NC3=O)C4=O)cc2)C1` (stereo partly drawn) [Compound 8] reads 1 to 30 nM; that for `CN1C[C@H](Nc2cnn(C)c(=O)c2Br)C[C@H](c2ccc(C(=O)N3CCN(CC4CCN(c5cccc6c5C(=O)N(C5CCC(=O)NC5=O)C6=O)CC4)CC3)cc2)C1` (stereo partly drawn) [Compound 9], under 1 nM. Still for that read-out and setting: the result for `CN1C[C@H](Nc2cnn(C)c(=O)c2Br)C[C@H](c2ccc(C(=O)N3CCC(C(=O)N4CCN(c5cccc6c5C(=O)N(C5CCC(=O)NC5=O)C6=O)CC4)CC3)cc2)C1` (stereo partly drawn) [Compound 10] reads 1 to 30 nM; that for `CN1C[C@H](Nc2cnn(C)c(=O)c2Br)C[C@H](c2ccc(C(=O)NCCCCCCOCCOCC(=O)Nc3cccc4c3C(=O)N(C3CCC(=O)NC3=O)C4=O)cc2)C1` (stereo partly drawn) [Compound 12], 1 to 30 nM.

Turning to `CN1C[C@H](Nc2cnn(C)c(=O)c2Br)C[C@H](c2ccc(C(=O)N(C)C3CCN(c4cccc5c4C(=O)N(C4CCC(=O)NC4=O)C5=O)CC3)cc2)C1` (stereo partly drawn) [Compound 13], the half-maximal degradation concentration (DC50) on KAT2A [1] fell in the range of 1 to 30 nM. Take `CN1C[C@H](Nc2cnn(C)c(=O)c2Br)C[C@H](c2ccc(C(=O)N3CCN(c4cccc5c4C(=O)N(C4CCC(=O)NC4=O)C5=O)CC3)cc2)C1` (stereo partly drawn) [Compound 14]: on KAT2A [1], the DC50 was under 1 nM. Same read-out and setting: the value for `CN1C[C@H](Nc2cnn(C)c(=O)c2Br)C[C@H](c2ccc(C(=O)NC3CCN(c4cccc5c4C(=O)N(C4CCC(=O)NC4=O)C5=O)CC3)cc2)C1` (stereo partly drawn) [Compound 15] was 1 to 30 nM.

In the case of `CN1C[C@H](Nc2cnn(C)c(=O)c2Br)C[C@H](c2ccc(C(=O)N3CCC(Oc4cccc5c4C(=O)N(C4CCC(=O)NC4=O)C5=O)CC3)cc2)C1` (stereo partly drawn) [Compound 19], the DC50 at KAT2A [1] was 1 to 30 nM. Same read-out and setting: the value for `CN1C[C@H](Nc2cnn(C)c(=O)c2Br)C[C@H](c2ccc(C(=O)N3CCN(Cc4ccc5c(c4)C(=O)N(C4CCC(=O)NC4=O)C5=O)CC3)cc2)C1` (stereo partly drawn) [Compound 25] was under 1 nM; that for `CN1C[C@H](Nc2cnn(C)c(=O)c2Br)C[C@H](c2ccc(C(=O)N(C)c3cccc(Oc4cccc5c4C(=O)N(C4CCC(=O)NC4)C5=O)c3)cc2)C1` (stereo partly drawn) [Compound 26] was 1 to 30 nM; that for `CN1C[C@H](Nc2cnn(C)c(=O)c2Br)C[C@H](c2ccc(C(=O)N3CCN(c4cccc5c4C(=O)N(C4CCC(=O)NC4=O)C5=O)CC3)cc2)C1` (stereo partly drawn) [Compound 27] was under 1 nM. The same measure, in the same setting: the result for `CN1C[C@H](Nc2cnn(C)c(=O)c2Br)C[C@H](c2ccc(C(=O)N3CC4(C3)CN(c3cccc5c3C(=O)N(C3CCC(=O)NC3=O)C5=O)C4)cc2)C1` (stereo partly drawn) [Compound 29] reads under 1 nM; that for `CN1C[C@H](Nc2cnn(C)c(=O)c2Br)C[C@H](c2ccc(C(=O)N3CC(Oc4ccc5c(c4)C(=O)N(C4CCC(=O)NC4=O)C5=O)C3)cc2)C1` (stereo partly drawn) [Compound 30], 1 to 30 nM. For `CN1C[C@H](Nc2nc3cc[nH]c3c(=O)n2C)C[C@H](c2ccc(C(=O)N3CCC4(CC3)CCN(c3ccc(C5CCC(=O)NC5=O)cc3)CC4)cc2)C1` (stereo partly drawn) [Compound 427, 3-(4-(9-(4-((3R,5R)-1-methyl-5-((3-methyl-4-oxo-4,5-dihydro-3H-pyrrolo[3,2-d]pyrimidin-2-yl)amino)piperidin-3-yl)benzoyl)-3,9-diazaspiro[5.5]undecan-3-yl)phenyl)piperidine-2,6-dione], the DC50 at KAT2A [2] and on KAT2B was under 1 nM throughout. Take `C[C@H](Nc1nn(C)c(=O)c2cccnc12)[C@H](c1ccc(C(=O)N2CCC3(CC2)CCN(c2ccc(C4CCC(=O)NC4=O)cc2)CC3)cc1)N(C)C` (stereo partly drawn) [Compound 429, 3-(4-(9-(4-((1S,2S)-1-(dimethylamino)-2-((6-methyl-5-oxo-5,6-dihydropyrido[2,3-d]pyridazin-8-yl)amino)propyl)benzoyl)-3,9-diazaspiro[5.5]undecan-3-yl)phenyl)piperidine-2,6-dione]: the half-maximal degradation concentration (DC50) at KAT2A [2] is under 1 nM; on KAT2B it was 1 to 30 nM.

As to `C[C@H](Nc1nn(C)c(=O)c2ncccc12)[C@H](c1ccc(C(=O)N2CCC3(CC2)CCN(c2ccc(C4CCC(=O)NC4=O)cc2)CC3)cc1)N(C)C` (stereo partly drawn) [Compound 430, 3-(4-(9-(4-((1S,2S)-1-(dimethylamino)-2-((7-methyl-8-oxo-7,8-dihydropyrido[2,3-d]pyridazin-5-yl)amino)propyl)benzoyl)-3,9-diazaspiro[5.5]undecan-3-yl)phenyl)-piperidine-2,6-dione], the figures for the DC50 at KAT2A [2] and at KAT2B were under 1 nM and over 30 nM, respectively. For `C[C@H](Nc1nn(C)c(=O)c2ccccc12)[C@H](c1ccc(C(=O)N2CCC3(CC2)CCN(c2ccc(C4CCC(=O)NC4=O)cc2)CC3)cc1)N(C)C` (stereo partly drawn) [Compound 432, 3-(4-(9-(4-((1S,2S)-1-(dimethylamino)-2-((3-methyl-4-oxo-3,4-dihydro-phthalazin-1-yl)amino)propyl)benzoyl)-3,9-diazaspiro[5.5]undecan-3-yl)phenyl)piperid-ine-2,6-dione], the results for the DC50 on KAT2A [2] and at KAT2B were under 1 nM and over 30 nM, respectively.

As for `CN1C[C@H](Nc2cnn(C)c(=O)c2Br)C[C@H](c2ccc(COc3ccc4c(=O)n(C5CCC(=O)NC5=O)ccc4c3)cc2)C1` (stereo partly drawn) [Compound 433, 3-(6-((4-((3R,5R)-5-((5-bromo-1-methyl-6-oxo-1,6-dihydropyridazin-4-yl)amino)-1-methylpiperidin-3-yl)benzyl)oxy)-1-oxoisoquinolin-2(1H)-yl)piperidine-2,6-dione], the 50% degradation concentration (DC50) was under 1 nM on KAT2A [2] and 1 to 30 nM at KAT2B. On the same counts, the results for `CN1C[C@H](Nc2cnn(C)c(=O)c2Br)C[C@H](c2ccc(N3CCC(Oc4cccc(C5CCC(=O)NC5=O)c4)CC3)cc2)C1` (stereo partly drawn) [Compound 434, 3-(3-((1-(4-((3R,5R)-5-((5-bromo-1-methyl-6-oxo-1,6-dihydropyridazin-4-yl)amino)-1-methylpiperidin-3-yl)phenyl)piperidin-4-yl)oxy)phenyl)piperidine-2,6-dione] are under 1 nM and under 1 nM.

As for `CN1C[C@H](Nc2cnn(C)c(=O)c2Br)C[C@H](c2ccc(CN3CCN(c4cccc(OC5CCC(=O)NC5=O)c4)CC3)cc2)C1` (stereo partly drawn) [Compound 435, 3-(3-(4-(4-((3R,5R)-5-((5-bromo-1-methyl-6-oxo-1,6-dihydropyridazin-4-yl)amino)-1-methylpiperidin-3-yl)benzyl)piperazin-1-yl)phenoxy)piperidine-2,6-dione], the DC50 at KAT2A [2] and on KAT2B was over 30 nM throughout. Consider `Cc1cc(N2CCC3(CCN(c4ccc([C@H]5C[C@@H](Nc6cnn(C)c(=O)c6Br)CN(C)C5)cc4)CC3)CC2)ccc1C1CCC(=O)NC1=O` (stereo partly drawn) [Compound 436, 3-(4-(9-(4-((3R,5R)-5-((5-bromo-1-methyl-6-oxo-1,6-dihydropyridazin-4-yl)amino)-1-methylpiperidin-3-yl)phenyl)-3,9-diazaspiro[5.5]undecan-3-yl)-2-methylphenyl)piperidine-2,6-dione], for which the half-maximal degradation concentration (DC50) at KAT2A [2] was under 1 nM; at KAT2B it was 1 to 30 nM.

The values above are taken from patent publication US20260306640A1, “TECHNOLOGIES TARGETING CELL STATES” (Auron Therapeutics, Inc., priority 2023, published 2026).
